The values below come from patent US20120309734A1, “COMBRETASTATIN DERIVATIVES AND USES THEREFOR” (priority 2009, published 2012).

The test system of one series is HUVEC cells. The series is described as follows: HUVEC DNA content by flow cytometry (PI). Type of series: cell-based, human. The following applies: 24 h. The method, then:
FIG. 8 illustrates the anti-proliferative response of endothelial cells to compound 4. HUVEC cells were treated with vehicle (0.5% (v/v) ethanol) or the indicated concentrations of 4 for 24 h and fixed by a drop-wise addition of ice-cold ethanol. Cells were then stained with 0.15 mg/ml propidium iodide (PI) and their DNA content assessed using a FACSCalibur flow cytometer (Becton Dickinson, San Jose, Calif., USA). Data collections (10,000 events per sample) were gated to exclude cell debris and cell aggregates. Analysis of data was performed using the CellQuest software (Becton Dickinson). PI fluorescence was proportional to the amount of DNA present in each entity and therefore indicated the stage of the cell cycle. Cells in the subG0/G1 phase (<2N DNA) were deemed apoptotic, while cells with 4N quantities of DNA were considered to be in the G2/M phase of the cell cycle. Values represent the mean±S.E.M for three independent experiments.

For the next series, the target named is T1, p-glycoprotein (Homo sapiens, UniProt P08183).
T1 construct: HL-60-MDR (overexpress p-glycoprotein); endogenous in cells; host or cells: HL-60-MDR, A2780-ADR
The series can be described thus: Anti-proliferative effects in multi-drug resistant cells, conclusion on efflux. The series is classed as cell-based. The following applies: concluded from resistance factors.

Structures are written as SMILES.

T1 sequence (P08183 whole entry): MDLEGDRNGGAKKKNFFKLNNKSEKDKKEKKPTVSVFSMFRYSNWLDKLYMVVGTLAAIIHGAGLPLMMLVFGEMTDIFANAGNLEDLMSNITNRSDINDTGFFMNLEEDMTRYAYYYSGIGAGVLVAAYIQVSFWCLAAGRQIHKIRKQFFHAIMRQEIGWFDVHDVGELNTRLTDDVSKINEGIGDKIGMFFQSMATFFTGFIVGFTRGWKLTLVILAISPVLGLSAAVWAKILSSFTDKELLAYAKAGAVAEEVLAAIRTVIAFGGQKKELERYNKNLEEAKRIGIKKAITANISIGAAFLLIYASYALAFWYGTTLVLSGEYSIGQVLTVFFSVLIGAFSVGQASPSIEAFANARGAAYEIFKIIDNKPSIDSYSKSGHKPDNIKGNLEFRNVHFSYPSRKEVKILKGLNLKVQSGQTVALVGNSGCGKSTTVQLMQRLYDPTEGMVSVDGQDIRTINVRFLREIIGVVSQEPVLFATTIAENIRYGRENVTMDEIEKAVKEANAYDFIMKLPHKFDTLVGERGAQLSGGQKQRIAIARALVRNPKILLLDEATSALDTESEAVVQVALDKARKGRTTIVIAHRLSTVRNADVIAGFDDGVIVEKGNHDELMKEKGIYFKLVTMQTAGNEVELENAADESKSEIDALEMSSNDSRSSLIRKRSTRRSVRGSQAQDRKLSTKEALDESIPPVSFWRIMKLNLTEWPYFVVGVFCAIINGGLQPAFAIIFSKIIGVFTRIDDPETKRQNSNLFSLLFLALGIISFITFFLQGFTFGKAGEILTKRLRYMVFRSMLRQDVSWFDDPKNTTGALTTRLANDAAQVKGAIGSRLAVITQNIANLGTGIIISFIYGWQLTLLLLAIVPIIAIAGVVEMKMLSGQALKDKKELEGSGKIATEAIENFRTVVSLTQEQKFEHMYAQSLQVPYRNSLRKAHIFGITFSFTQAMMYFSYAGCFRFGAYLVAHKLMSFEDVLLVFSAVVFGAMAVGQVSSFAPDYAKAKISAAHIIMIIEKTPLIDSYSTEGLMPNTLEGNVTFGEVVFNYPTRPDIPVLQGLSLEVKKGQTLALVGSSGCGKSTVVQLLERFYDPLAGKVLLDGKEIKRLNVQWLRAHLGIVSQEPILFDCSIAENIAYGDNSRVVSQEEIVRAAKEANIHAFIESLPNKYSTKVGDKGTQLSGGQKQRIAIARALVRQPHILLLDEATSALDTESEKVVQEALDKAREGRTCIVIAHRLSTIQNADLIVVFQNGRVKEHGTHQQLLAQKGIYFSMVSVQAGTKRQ
Description for p-glycoprotein: Three drug resistant cell lines and respective parental cell lines were assessed. […] Western blot analysis confirmed the overexpression of p-glycoprotein and BCRP in respective cell lines.
Cells were exposed to multiple concentrations of the indicated compound for 72 h. Cell viability was assessed using the Alamar blue assay and respective IC50 values were calculated. The resistance factor (RF) was calculated by dividing the IC50 of the resistant cell line/IC50 of the parental cell line.

As to `COc1ccc(C2C(c3ccccc3)C(=O)N2c2cc(OC)c(OC)c(OC)c2)cc1O` (centres unmarked) [Compound 4, 4-(3-Hydroxy-4-methoxyphenyl)-3-phenyl-1-(3,4,5-trimethoxyphenyl)-azetidin-2-one], the “effect on levels of apoptosis or G2/M” value with HUVEC cells (1 nM) is reported as “not sufficient to affect the levels of apoptosis or G2/M”. Further, the “apoptosis (subG0/G1)” value with HUVEC cells (10 nM) was 35.1%; in the series on HUVEC cells (50 nM) it was 31.4%; in the series with HUVEC cells (100 nM) it was 28.0%. For the same compound, the figures for the “cells in the G2/M phase” value with HUVEC cells (10 nM), in the series with HUVEC cells (50 nM) and in the series on HUVEC cells (100 nM) were 36.9%, 37.0% and 39.8%, respectively. In addition, the “substrate for the p-glycoprotein” value on p-glycoprotein was “poor substrates for the p-glycoprotein”.
